This is an account of results in ChEMBL document CHEMBL1773063, “Aromatic radiofluorination and biological evaluation of 2-aryl-6-[18F]fluorobenzothiazoles as a potential positron emission tomography imaging probe for β-amyloid plaques” (Bioorg Med Chem, 2011).

The subject of data set [1] is Cerebellum. The note with it: mouse, in vivo, iv, 1 h.
Description: Biodistribution in ICR mouse cerebellum at 1.1 MBq, iv after 60 mins postinjection
Data set [2] deals with Brain. The note with it: mouse, in vivo, iv, 1 h.
Description: Biodistribution in remaining brain of ICR mouse at 1.1 MBq, iv after 60 mins postinjection
The test system of data set [3] is Blood. The note with it: mouse, in vivo, iv, 2 min.
Description: Biodistribution in ICR mouse blood at 1.1 MBq, iv after 2 mins postinjection
The next data set is described as follows: in vitro. As to conditions: human, serum.
Data set [4] relates to Cerebellum. As to conditions: mouse, in vivo, iv, 0.5 h.
Description: Biodistribution in ICR mouse cerebellum at 1.1 MBq, iv after 30 mins postinjection
Data set [5] has as its system Cortex. As to conditions: mouse, in vivo, iv, 1 h.
Description: Biodistribution in ICR mouse cortex at 1.1 MBq, iv after 60 mins postinjection
The test system of data set [6] is Cortex. The note with it: mouse, in vivo, iv, 0.5 h.
Description: Biodistribution in ICR mouse cortex at 1.1 MBq, iv after 30 mins postinjection
In data set [7] the test system is Cortex. As to conditions: mouse, in vivo, iv, 2 min.
Description: Biodistribution in ICR mouse cortex at 1.1 MBq, iv after 2 mins postinjection
In data set [8] the test system is Blood. The note with it: mouse, in vivo, iv, 1 h.
Description: Biodistribution in ICR mouse blood at 1.1 MBq, iv after 60 mins postinjection
The subject of data set [9] is Cerebellum. The note with it: mouse, in vivo, iv, 2 min.
Description: Biodistribution in ICR mouse cerebellum at 1.1 MBq, iv after 2 mins postinjection
Data set [10] relates to Brain. The note with it: mouse, in vivo, iv, 2 min.
Description: Biodistribution in remaining brain of ICR mouse at 1.1 MBq, iv after 2 mins postinjection
Data set [11] relates to Brain. The note with it: mouse, in vivo, iv, 0.5 h.
Description: Biodistribution in remaining brain of ICR mouse at 1.1 MBq, iv after 30 mins postinjection
Data set [12] has as its system Blood. The note with it: mouse, in vivo, iv, 0.5 h.
Description: Biodistribution in ICR mouse blood at 1.1 MBq, iv after 30 mins postinjection
For data set [13], the species on record is Mus musculus. Nature of the data set: Binding affinity to beta-amyloid plaque in APPswe/PS1deltaE9 double transgenic mouse brain after 3 mins by Thioflavin-S fluorescence-based confocal microscopy. Format: tissue-based.
Data set [14] has as its target T1, Amyloid-beta precursor protein (Homo sapiens, UniProt P05067). In words: biochemical.
Description: Displacement of [125I]TZDM from amyloid beta (1 to 42) aggregates in Alzheimer's disease-human brain homogenate after 3 hrs by gamma counting
In data set [15] the target is T1, Amyloid-beta precursor protein. Nature of the data set: biochemical. The source holds these as a separate data set.
Description: Displacement of [3H]PIB from amyloid beta (1 to 42) aggregates in Alzheimer's disease-human brain homogenate after 3 hrs by gamma counting
The next data set can be described thus: physchem. As to conditions: octanol/PBS.
Data set [16] is filed under the species Mus musculus. Nature of the data set: Binding affinity to beta-amyloid plaque in wild type mouse brain after 3 mins by Thioflavin-S fluorescence-based confocal microscopy. It counts as tissue-based.

Active and inactive are the calls of the source. The calls are words filed in the database; no cut-off is given here.

T1 sequence (P05067 whole entry): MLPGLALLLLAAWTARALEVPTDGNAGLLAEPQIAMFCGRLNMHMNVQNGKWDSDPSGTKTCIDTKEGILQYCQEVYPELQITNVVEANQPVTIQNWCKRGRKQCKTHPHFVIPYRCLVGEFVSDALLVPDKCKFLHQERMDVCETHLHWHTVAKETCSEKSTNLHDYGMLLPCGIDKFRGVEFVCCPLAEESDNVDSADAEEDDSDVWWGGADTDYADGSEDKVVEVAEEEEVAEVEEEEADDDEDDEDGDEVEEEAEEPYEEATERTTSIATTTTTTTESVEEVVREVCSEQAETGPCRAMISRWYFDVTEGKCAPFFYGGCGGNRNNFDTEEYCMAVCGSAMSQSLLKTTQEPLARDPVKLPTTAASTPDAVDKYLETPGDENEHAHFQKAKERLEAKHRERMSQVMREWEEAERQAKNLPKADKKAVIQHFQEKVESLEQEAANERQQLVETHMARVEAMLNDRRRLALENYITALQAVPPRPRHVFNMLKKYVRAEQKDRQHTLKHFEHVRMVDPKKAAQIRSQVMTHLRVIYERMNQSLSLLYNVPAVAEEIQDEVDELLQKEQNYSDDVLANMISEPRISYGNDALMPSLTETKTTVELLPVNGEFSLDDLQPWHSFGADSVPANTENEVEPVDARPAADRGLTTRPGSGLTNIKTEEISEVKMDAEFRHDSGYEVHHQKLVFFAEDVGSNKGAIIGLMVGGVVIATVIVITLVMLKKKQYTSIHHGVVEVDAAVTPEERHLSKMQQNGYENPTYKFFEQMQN
Description for in vitro: Metabolic stability in human serum assessed as compound remaining at 3.7 MBq after 120 mins by radio-TLC
Description for physchem: Octanol-PBS partition coefficient, log P of the compound by gamma counter

The term amount remaining denotes the share of the starting amount still present when the sample was taken. A lower amount remaining goes with more turnover. As to `CN(C)c1ccc(-c2nc3ccc([18F])cc3s2)cc1`, the Drug uptake with Cerebellum [1] is given as 1.16 % ID/g; in the data set on Brain [2] it was 2.01 % ID/g; with Blood [3], 1.55 % ID/g; with Cerebellum [4], 2.03 % ID/g; with Cortex [5] it was 1.61 % ID/g; with Cortex [6], 2.17 % ID/g. Moreover, the Drug uptake in the data set with Cortex [7] is on record as 4.39 % ID/g; in the data set with Blood [8] it was 1.02 % ID/g; in the data set with Cerebellum [9], 4.45 % ID/g; in the data set on Brain [10], 4.26 % ID/g; in the data set with Brain [11] it was 2.8 % ID/g; in the data set with Blood [12], 1.04 % ID/g. Further, in “in vitro”, the fraction remaining at 2 h, 3.7 MBq was found to be 90%.
Usually Ki stands for a dissociation constant, usually derived from enzyme kinetics or from competition with a known ligand. Usually logP stands for the decadic logarithm of the partition coefficient of the neutral form, usually between octanol and water. For `CNc1ccc(-c2nc3ccc(F)cc3s2)cc1`, the outcome in the data set filed under Mus musculus [13] and in the data set filed under Mus musculus [16] was Active. The inhibition constant Ki in [14] came out at 5.5 nM; in data set [15] it was 0.2 nM. Besides, the log partition coefficient (logP) in “physchem” was found to be 3.2.
As to `CNc1ccc(-c2nc3ccc([18F])cc3s2)cc1`, the Drug uptake worked out at 0.98 % ID/g in the data set on Cerebellum [1]; 1.32 % ID/g with Brain [2]; 2.08 % ID/g in the data set on Blood [3]; 1.38 % ID/g with Cerebellum [4]; 0.73 % ID/g with Cortex [5]; 1.2 % ID/g with Cortex [6]. Also, the Drug uptake in the data set on Cortex [7] is 6.62 % ID/g; in the data set on Blood [8], 1.11 % ID/g; in the data set with Cerebellum [9] it was 6.24 % ID/g; in the data set on Brain [10], 6.3 % ID/g; in the data set with Brain [11], 1.91 % ID/g; with Blood [12] it was 1.13 % ID/g. This compound yielded an amount remaining at 2 h, 3.7 MBq in “in vitro” of 90%.
Regarding `CN(C)c1ccc(-c2nc3ccc(F)cc3s2)cc1`, the Ki was found to be 5.9 nM in [14] and 0.3 nM in data set [15]. For the same compound, the lipophilicity (logP) in “physchem” is 3.6.
